From ChEMBL document CHEMBL1201862, “PubChem BioAssay data set” (2004)
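96-well plates; 48 h exposure; 5 concentrations. Endpoints by linear interpolation between flanking doses. Not reached: highest tested concentration assigned. GI50: concentration for 50% inhibition of growth.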 The source made the active and inactive calls. Cut-off read from the data, not from the text of the source: active = GI50 up to about 1.1 µM and inactive = higher.

Experiments:
Assay in all cases: inhibition of tumour cell growth, NCI panel, 48 h
ACHN = tested on: ACHN
HCT-15 = tested on: HCT-15
SNB-19 = tested on: SNB-19
HCT-116 = tested on: HCT-116
NCI-H23 = tested on: NCI-H23
OVCAR-8 = tested on: OVCAR-8
KM-20L2 = tested on: KM-20L2
OVCAR-3 = tested on: OVCAR-3
NCI-H522 = tested on: NCI-H522
HOP-62 = tested on: HOP-62
SK-MEL-28 = tested on: SK-MEL-28
U-251 = tested on: U-251
MOLT-4 = tested on: MOLT-4
SF-539 = tested on: SF-539
RXF 393 = tested on: RXF 393
MDA-MB-435 = tested on: MDA-MB-435
MDA-MB-231 = tested on: MDA-MB-231
NCI/ADR-RES = tested on: NCI/ADR-RES
MDA-N = tested on: MDA-N
Hs-578T = tested on: Hs-578T

Row | Structure (SMILES) | GI50 (ACHN) | GI50 (HCT-15) | GI50 (SNB-19) | GI50 (HCT-116) | GI50 (NCI-H23) | GI50 (OVCAR-8) | GI50 (KM-20L2) | GI50 (OVCAR-3) | GI50 (NCI-H522) | GI50 (HOP-62) | GI50 (SK-MEL-28) | GI50 (U-251) | GI50 (MOLT-4) | GI50 (SF-539) | GI50 (RXF 393) | GI50 (MDA-MB-435) | GI50 (MDA-MB-231) | GI50 (NCI/ADR-RES) | GI50 (MDA-N) | GI50 (Hs-578T)
1 | Nc1c(C(=O)Nc2ccccc2O)[n+]([O-])c2ccccc2[n+]1[O-] | 87.5 µM (inactive) | 30.5 µM | > 100 µM (inactive) | 31.7 µM (inactive) | 23.9 µM (inactive) | 64.1 µM (inactive) | > 100 µM (inactive) | 29.9 µM (inactive) | 43.4 µM (inactive) | > 100 µM (inactive) | 79.4 µM (inactive) | 71.8 µM (inactive) | 45.8 µM (inactive) | 32.3 µM (inactive) | – | – | – | – | – | –
2 | O=C(CSc1nnc(-c2ccc(/N=C\c3ccc(Cl)cc3)cc2)o1)Nc1ccc([N+](=O)[O-])cc1 | 11.9 µM (inactive) | 18.4 µM | 16.6 µM (inactive) | 2.58 µM (inactive) | 19.4 µM (inactive) | 37.6 µM (inactive) | 27.2 µM (inactive) | – | 20.9 µM (inactive) | 32.1 µM (inactive) | 18.5 µM (inactive) | 19.3 µM (inactive) | 15.7 µM (inactive) | – | 19.6 µM (inactive) | – | – | – | – | –
3 | O=C(c1nc2ccc(Cl)cc2nc1O)C(O)c1ccc2c(c1)OCO2 (configuration not stated) | 65.3 µM (inactive) | – | – | – | > 100 µM (inactive) | > 100 µM (inactive) | 74.5 µM (inactive) | – | 13.3 µM (inactive) | > 100 µM (inactive) | 78.5 µM (inactive) | > 100 µM (inactive) | 28.4 µM (inactive) | – | > 100 µM (inactive) | – | – | – | – | –
4 | Cc1cc(Cl)ccc1NC(=O)C(=O)C(C(=O)c1ccc2ccccc2c1)C1OC(=O)c2ccccc21 (configuration not stated) | 23.2 µM (inactive) | 18.7 µM | 3.87 µM (inactive) | 9.4 µM (inactive) | 6.73 µM (inactive) | 14.1 µM (inactive) | 24 µM (inactive) | 9.98 µM (inactive) | 7.06 µM (inactive) | 10.5 µM (inactive) | 9.79 µM (inactive) | 4.95 µM (inactive) | – | 4.48 µM (inactive) | 1.83 µM (inactive) | – | – | – | – | –
5 | COc1ccccc1-c1cc(=O)c2cc(C)c(C)c(C(=O)O)c2o1 | > 100 µM (inactive) | > 100 µM | > 100 µM (inactive) | > 100 µM (inactive) | > 100 µM (inactive) | > 100 µM (inactive) | > 100 µM (inactive) | > 100 µM (inactive) | > 100 µM (inactive) | > 100 µM (inactive) | > 100 µM (inactive) | > 100 µM (inactive) | > 100 µM (inactive) | > 100 µM (inactive) | – | – | – | – | – | –
6 | COC(=O)/C(=N\NC(=O)c1ccccc1O)C(C#N)c1ccc(Cl)cc1 (configuration not stated) | 5.85 µM (inactive) | 33 µM | – | 30.3 µM (inactive) | 24.4 µM (inactive) | 28.1 µM (inactive) | 33.8 µM (inactive) | 29.9 µM (inactive) | 25.2 µM (inactive) | 14.6 µM (inactive) | 28.3 µM (inactive) | 44.7 µM (inactive) | 31.4 µM (inactive) | 9.29 µM (inactive) | 2.04 µM (inactive) | – | – | – | – | –
7 | O=C(CSc1nnc(-c2ccc(/N=C\c3ccc(Cl)cc3)cc2)o1)Nc1cccc([N+](=O)[O-])c1 | > 100 µM (inactive) | > 100 µM | > 100 µM (inactive) | > 100 µM (inactive) | > 100 µM (inactive) | > 100 µM (inactive) | > 100 µM (inactive) | – | 27.5 µM (inactive) | > 100 µM (inactive) | > 100 µM (inactive) | > 100 µM (inactive) | > 100 µM (inactive) | – | > 100 µM (inactive) | – | – | – | – | –
8 | CCc1c(C#N)c(=O)[nH]c(=O)n1CCN1CCN(C(=O)NCCCCCCNC(=O)N2CCN(CCn3c(CC)c(C#N)c(=O)[nH]c3=O)CC2)CC1 | > 100 µM (inactive) | > 100 µM | > 100 µM (inactive) | > 100 µM (inactive) | – | > 100 µM (inactive) | > 100 µM (inactive) | > 100 µM (inactive) | – | > 100 µM (inactive) | > 10 µM (inactive) | > 100 µM (inactive) | > 100 µM (inactive) | > 100 µM (inactive) | – | – | – | – | – | –
9 | O=C1Nc2cccc(Cl)c2/C1=C\c1c(-c2ccccc2)nc2n1CCS2 | 16.4 µM (inactive) | 18.9 µM | 26.6 µM (inactive) | 20.2 µM (inactive) | 23.3 µM (inactive) | 24.7 µM (inactive) | – | 19.4 µM (inactive) | 30.2 µM (inactive) | 25.9 µM (inactive) | 21.2 µM (inactive) | 19.6 µM (inactive) | 10.6 µM (inactive) | 17.1 µM (inactive) | 19.6 µM (inactive) | 18.2 µM (inactive) | 20.7 µM (inactive) | 16.3 µM (inactive) | 18.5 µM (inactive) | 18.9 µM (inactive)
10 | CC1=NN(C(=O)CC(=O)Nc2cccc(Cl)c2)C(=O)C1/N=N\c1ccc(S(=O)(=O)c2ccc(/N=N/C3C(=O)N(C(=O)CC(=O)Nc4cccc(Cl)c4)N=C3C)cc2)cc1 (configuration not stated) | > 100 µM (inactive) | > 100 µM | > 100 µM (inactive) | > 100 µM (inactive) | > 100 µM (inactive) | > 100 µM (inactive) | – | > 100 µM (inactive) | > 100 µM (inactive) | > 100 µM (inactive) | > 100 µM (inactive) | 29.4 µM (inactive) | > 100 µM (inactive) | 22.6 µM (inactive) | > 100 µM (inactive) | > 100 µM (inactive) | 16.1 µM (inactive) | > 100 µM (inactive) | > 100 µM (inactive) | > 100 µM (inactive)
